Measured values from US20240158446A1, “CYCLIC COMPOUND HAVING SELECTIVE INHIBITORY ACTION ON KRAS OVER HRAS AND NRAS” (CHUGAI SEIYAKU KABUSHIKI KAISHA, priority 2021, published 2024).
Read-outs that look alike come from different tables or passages of the source. Where a SMILES comes first, the peptide text is derived from it. Bridges are numbered along the chain shown (N, C = ends). [ ]: non-standard residue; d: D form. The star is where a group is joined. ξ: configuration not given here. hPhe(3-Cl-4-CF3) = N[C@@H](CCc1ccc(C(F)(F)F)c(Cl)c1)C(=O)O; NPrPhe(4-CF3) = CCCN[C@@H](Cc1ccc(C(F)(F)F)cc1)C(=O)O; 3Oxa8azabicyclo(3.2.1)octane = C1CC2COCC1N2*; NEtPhe(4-Me) = CCN[C@@H](Cc1ccc(C)cc1)C(=O)O; NMeGly(cPent) = CN[C@H](C(=O)O)C1CCCC1; NMeD = CN[C@@H](CC(=O)O)C(=O)O; NMeL = CN[C@@H](CC(C)C)C(=O)O; ξNMeD = CNC(CC(=O)O)C(=O)O; Morpholide = C1CN(*)CCO1; NMeAib = CNC(C)(C)C(=O)O; Nle = CCCC[C@H](N)C(=O)O; Piperidide = C1CCN(*)CC1; Ac5c = NC1(C(=O)O)CCCC1; ξP = O=C(O)C1CCCN1; Sar = CNCC(=O)O

Legend:
[1] = test system: human lung cancer strain NCI-H441;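 note: cell proliferation inhibition after four days measured by CellTiter-Glo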
[2] = molecular target: GDP-bound KRAS wild-type protein (Homo sapiens, UniProt P01116); experiment: Binding to KRAS by surface plasmon resonance (SPR), Single Cycle Kinetics; conditions: SPR, Single Cycle Kinetics, GDP-bound KRAS wild-type protein; read-out: KRAS KD
Sequence of GDP-bound KRAS wild-type protein (P01116 whole entry): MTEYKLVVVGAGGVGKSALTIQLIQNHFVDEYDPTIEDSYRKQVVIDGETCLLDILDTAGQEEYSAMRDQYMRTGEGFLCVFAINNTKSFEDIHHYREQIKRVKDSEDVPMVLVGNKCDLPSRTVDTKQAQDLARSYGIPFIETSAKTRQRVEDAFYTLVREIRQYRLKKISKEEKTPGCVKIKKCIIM

[3] = molecular target: GDP-bound NRAS wild-type protein (Homo sapiens, UniProt P01111); experiment: Binding to NRAS by surface plasmon resonance (SPR), Single Cycle Kinetics; conditions: SPR, GDP-bound NRAS wild-type protein vs GDP-bound KRAS wild-type protein
Sequence of GDP-bound NRAS wild-type protein (P01111 whole entry): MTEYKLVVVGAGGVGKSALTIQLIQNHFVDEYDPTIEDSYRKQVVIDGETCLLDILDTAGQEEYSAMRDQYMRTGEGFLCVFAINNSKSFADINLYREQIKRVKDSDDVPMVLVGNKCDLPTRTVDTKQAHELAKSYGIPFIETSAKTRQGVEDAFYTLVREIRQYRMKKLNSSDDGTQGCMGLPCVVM

[4] = molecular target: GDP-bound HRAS wild-type protein (Homo sapiens, UniProt P01112); experiment: Binding to HRAS by surface plasmon resonance (SPR), Single Cycle Kinetics; conditions: SPR, GDP-bound HRAS wild-type protein vs GDP-bound KRAS wild-type protein
Sequence of GDP-bound HRAS wild-type protein (P01112 whole entry): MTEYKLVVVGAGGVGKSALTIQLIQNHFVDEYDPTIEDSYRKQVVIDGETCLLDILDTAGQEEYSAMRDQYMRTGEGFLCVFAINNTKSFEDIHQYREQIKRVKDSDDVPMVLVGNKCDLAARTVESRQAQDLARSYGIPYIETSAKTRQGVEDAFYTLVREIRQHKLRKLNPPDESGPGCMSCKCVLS

[5] = read-out: NCI-H441 IC50, NCI-H441 cells, four days, CellTiter-Glo

Row | Compound | IC50 [1, 5] [nM] | IC50 [1] [nM] | Kd [2] [nM] | NRAS/KRAS (ratio of KD value for NRAS to KD value for KRAS) [3] | HRAS/KRAS (ratio of KD value for HRAS to KD value for KRAS) [4]
1 | CCCC[C@@H]1NC(=O)[C@H](CCc2ccc(C(F)(F)F)c(Cl)c2)NC(=O)CN(C)C(=O)[C@H](Cc2ccc(C)cc2)N(CC)C(=O)CN(C)C(=O)CN(C)C(=O)[C@H]([C@@H](C)CC)NC(=O)[C@H](CC(C)C)N(C)C(=O)C[C@@H](C(=O)N2CCCCC2)N(C)C(=O)[C@H](CC(C)C)NC(=O)C(C)(C)N(C)C1=O [PP0050] ([NMeL]I[Sar][Sar][NEtPhe(4-Me)][Sar][hPhe(3-Cl-4-CF3)][Nle][NMeAib]L[NMeD]-Piperidide; lactam N-11) | 499 | – | – | – | –
2 | CC[C@H](C)[C@@H]1NC(=O)[C@H](CC(C)C)N(C)C(=O)C[C@@H](C(=O)N2C3CCC2COC3)N(C)C(=O)[C@H](C2CCCC2)N(C)C(=O)C2(CCCC2)NC(=O)[C@@H]2CCCN2C(=O)[C@H](CCc2ccc(C(F)(F)F)c(Cl)c2)NC(=O)CN(C)C(=O)[C@H](Cc2ccc(C)cc2)N(CC)C(=O)CN(C)C(=O)CN(C)C1=O [PP0051] ([NMeL]I[Sar][Sar][NEtPhe(4-Me)][Sar][hPhe(3-Cl-4-CF3)]P[Ac5c][NMeGly(cPent)][NMeD]-{3Oxa8azabicyclo(3.2.1)octane}; lactam N-11) | – | 22.1 | – | – | –
3 | CCCN1C(=O)CN(C)C(=O)CN(C)C(=O)[C@H]([C@@H](C)CC)NC(=O)[C@H](CC(C)C)N(C)C(=O)CC(C(=O)N2CCOCC2)N(C)C(=O)[C@H](C2CCCC2)N(C)C(=O)C2(CCCC2)NC(=O)[C@@H]2CCCN2C(=O)[C@H](CCc2ccc(C(F)(F)F)c(Cl)c2)NC(=O)C2CCCN2C(=O)[C@@H]1Cc1ccc(C(F)(F)F)cc1 (stereo partly shown) [PP0149] ([NMeL]I[Sar][Sar][NPrPhe(4-CF3)][ξP][hPhe(3-Cl-4-CF3)]P[Ac5c][NMeGly(cPent)][ξNMeD]-Morpholide; lactam N-11) | – | 317 | – | – | –
4 | CCCN1C(=O)CN(C)C(=O)CN(C)C(=O)[C@H]([C@@H](C)CC)NC(=O)[C@H](CC(C)C)N(C)C(=O)C[C@@H](C(=O)N2CCCCC2)N(C)C(=O)[C@H](C2CCCC2)N(C)C(=O)C2(CCCC2)NC(=O)[C@@H]2CCCN2C(=O)[C@H](CCc2ccc(C(F)(F)F)c(Cl)c2)NC(=O)CN(C)C(=O)[C@@H]1Cc1ccc(C(F)(F)F)cc1 [PP0171] ([NMeL]I[Sar][Sar][NPrPhe(4-CF3)][Sar][hPhe(3-Cl-4-CF3)]P[Ac5c][NMeGly(cPent)][NMeD]-Piperidide; lactam N-11) | 6.9 | – | – | – | –
5 | CC[C@H](C)[C@@H]1NC(=O)[C@@H]2CCC/C=C/c3ccc(cc3)C[C@@H](C(=O)N(C)CC(=O)N[C@@H](CCc3ccc(Cl)c(Cl)c3)C(=O)N3C[C@H](OC4CCCC4)C[C@H]3C(=O)NC3(CC(C)(C)C3)C(=O)N(C)[C@@H](C3CCCC3)C(=O)N(C)[C@H](C(=O)N3CCCC3)CC(=O)N2C)N2CC/C=C\C[C@@H](C2=O)N(C)C(=O)CN(C)C1=O [PP3054] | – | – | 0.27 | A (a compound having 10 or more and less than 20 is denoted as A) | A (a compound having 10 or more and less than 20 is denoted as A)
6 | CCO[C@@H]1C[C@H]2C(=O)N(C)C3(CC(C)(C)C3)C(=O)N(C)[C@@H](C3CCCC3)C(=O)N(C)[C@H](C(=O)N(C)C)CC(=O)N(C)[C@H]3CCC/C=C/c4ccc(cc4)C[C@@H](C(=O)N(C)CC(=O)N[C@@H](CCc4cc(F)c(C(F)(F)F)c(F)c4)C(=O)N2C1)N1CC/C=C\C[C@@H](C1=O)N(C)C(=O)CN(C)C(=O)[C@H]([C@@H](C)CC)NC3=O [PP3060] | – | – | 0.042 | B (a compound having 3 or more and less than 10 is denoted as B) | B (a compound having 3 or more and less than 10 is denoted as B)
7 | CCO[C@@H]1C[C@H]2C(=O)N(C)C3(CC(C)(C)C3)C(=O)N(C)[C@@H](C3CCCC3)C(=O)N(C)[C@H](C(=O)N(C)C)CC(=O)N(C)[C@H]3CCCC/C=C/c4ccc(cc4)C[C@@H](C(=O)N(C)CC(=O)N[C@@H](CCc4ccc(Cl)c(Cl)c4)C(=O)N2C1)N1CC/C=C\C[C@@H](C1=O)N(C)C(=O)CN(C)C(=O)[C@H]([C@@H](C)CC)NC3=O [PP3062] | – | – | 0.066 | A (a compound having 10 or more and less than 20 is denoted as A) | A (a compound having 10 or more and less than 20 is denoted as A)
8 | CCCO[C@@H]1C[C@H]2C(=O)NC3(CC(C)(C)C3)C(=O)N(C)[C@@H](C(CC)CC)C(=O)N(C)[C@H](C(=O)N(C)C)CC(=O)N(C)[C@H]3CCCc4ccc(cc4)C[C@@H](C(=O)N(C)CC(=O)N[C@@H](CCc4ccc(C(F)(F)F)c(OC)c4)C(=O)N2C1)N1CC/C=C\C[C@@H](C1=O)N(C)C(=O)CN(C)C(=O)[C@H]([C@@H](C)CC)NC3=O [PP3063] | – | – | 0.56 | B (a compound having 3 or more and less than 10 is denoted as B) | B (a compound having 3 or more and less than 10 is denoted as B)
9 | CCCO[C@@H]1C[C@H]2C(=O)NC3(CC(C)(C)C3)C(=O)N(C)[C@@H](C3CCCC3)C(=O)N(C)[C@H](C(=O)N3CCCCC3)CC(=O)N(C)[C@H]3CCCc4ccc(cc4)C[C@@H](C(=O)N(C)CC(=O)N[C@@H](CCc4ccc(C(F)(F)F)c(OC)c4)C(=O)N2C1)N1CC/C=C\C[C@@H](C1=O)N(C)C(=O)CN(C)C(=O)[C@H]([C@@H](C)CC)NC3=O [PP3064] | – | – | 0.37 | B (a compound having 3 or more and less than 10 is denoted as B) | B (a compound having 3 or more and less than 10 is denoted as B)
10 | CCCO[C@@H]1C[C@H]2C(=O)NC3(CC(C)(C)C3)C(=O)N(C)[C@@H](C3CCCC3)C(=O)N(C)[C@H](C(=O)N3CCCC3)CC(=O)N(C)[C@H]3CCCc4ccc(cc4)C[C@@H](C(=O)N(C)CC(=O)N[C@@H](CCc4ccc(C(F)(F)F)c(OC)c4)C(=O)N2C1)N1CC/C=C\C[C@@H](C1=O)N(C)C(=O)CN(C)C(=O)[C@H]([C@@H](C)CC)NC3=O [PP3065] | – | – | 0.23 | A (a compound having 10 or more and less than 20 is denoted as A) | B (a compound having 3 or more and less than 10 is denoted as B)
11 | CCO[C@@H]1C[C@H]2C(=O)NC3(CC(C)(C)C3)C(=O)N(C)[C@@H](C3CCCC3)C(=O)N(C)[C@H](C(=O)N(C)C)CC(=O)N(C)[C@H]3CCCCCCc4ccc(cc4)C[C@@H](C(=O)N(C)CC(=O)N[C@@H](CCc4ccc(C(F)(F)F)c(OC)c4)C(=O)N2C1)N1CC/C=C\C[C@@H](C1=O)N(C)C(=O)CN(C)C(=O)[C@H]([C@@H](C)CC)NC3=O [PP3066] | – | – | 0.042 | A (a compound having 10 or more and less than 20 is denoted as A) | B (a compound having 3 or more and less than 10 is denoted as B)
12 | CC[C@H](C)[C@@H]1NC(=O)[C@@H]2CCCCCCc3ccc(cc3)C[C@@H](C(=O)N(C)CC(=O)N[C@@H](CCc3ccc(C(F)(F)F)c(OC)c3)C(=O)N3C[C@H](OC(C)C)C[C@H]3C(=O)NC3(CC(C)(C)C3)C(=O)N(C)[C@@H](C3CCCC3)C(=O)N(C)[C@H](C(=O)N(C)C)CC(=O)N2C)N2CC/C=C\C[C@@H](C2=O)N(C)C(=O)CN(C)C1=O [PP3067] | – | – | 0.053 | A (a compound having 10 or more and less than 20 is denoted as A) | B (a compound having 3 or more and less than 10 is denoted as B)
13 | CC[C@H](C)[C@@H]1NC(=O)[C@@H]2CCCCCCc3ccc(cc3)C[C@@H](C(=O)N(C)CC(=O)N[C@@H](CCc3ccc(C(F)(F)F)c(OC)c3)C(=O)N3C[C@H](OC4CCC4)C[C@H]3C(=O)NC3(CC(C)(C)C3)C(=O)N(C)[C@@H](C3CCCC3)C(=O)N(C)[C@H](C(=O)N(C)C)CC(=O)N2C)N2CC/C=C\C[C@@H](C2=O)N(C)C(=O)CN(C)C1=O [PP3068] | – | – | 0.05 | A (a compound having 10 or more and less than 20 is denoted as A) | B (a compound having 3 or more and less than 10 is denoted as B)
14 | CC[C@H](C)[C@@H]1NC(=O)[C@@H]2CCCCCCc3ccc(cc3)C[C@@H](C(=O)N(C)CC(=O)N[C@@H](CCc3ccc(C(F)(F)F)c(OC)c3)C(=O)N3CC4(CC4)C[C@H]3C(=O)NC3(CC(C)(C)C3)C(=O)N(C)[C@@H](C3CCCC3)C(=O)N(C)[C@H](C(=O)N(C)C)CC(=O)N2C)N2CC/C=C\C[C@@H](C2=O)N(C)C(=O)CN(C)C1=O [PP3069] | – | – | 0.034 | A (a compound having 10 or more and less than 20 is denoted as A) | B (a compound having 3 or more and less than 10 is denoted as B)
15 | CCO[C@@H]1C[C@H]2C(=O)NC3(CC(C)(C)C3)C(=O)N(C)[C@@H](C3CCCC3)C(=O)N(C)[C@H](C(=O)N(C)C)CC(=O)N(C)[C@H]3CCCCCCc4ccc(cc4)C[C@@H](C(=O)N(C)CC(=O)N[C@@H](CCc4ccc(Cl)c(Cl)c4)C(=O)N2C1)N1CC/C=C\C[C@@H](C1=O)N(C)C(=O)CN(C)C(=O)[C@H]([C@@H](C)CC)NC3=O [PP3071] | – | – | 0.12 | A (a compound having 10 or more and less than 20 is denoted as A) | B (a compound having 3 or more and less than 10 is denoted as B)
